{"source": "patent US20210106703A1", "about": "“RADIOIMMUNOCONJUGATES IN COMBINATION WITH OTHER DRUGS AS TREATMENT AGAINST NHL” (Nordic Nanovector ASA, priority 2017, published 2021)", "molecules": {"B1": {"name": "Lutetium-177 [^177Lu]-lilotomab satetraxetan (conjugate, chains of the INN, looked up)", "VH": "EIQLQQSGPELVKPGASVKVSCKASGYSFTDYNMYWVKQSHGKSLEWIGYIDPYNGDTTYNQKFKGKATLTVDKSSSTAFIHLNSLTSEDSAVYYCARSPYGHYAMDYWGQGTSVTVSS", "VL": "DIVMTQSHKLLSTSVGDRVSITCKASQDVSTAVDWYQQKPGQSPKLLINWASTRHTGVPDRFTGSGSGTDYTLTISSMQAEDLALYYCRQHYSTPFTFGSGTKLEIK", "modifications": "177Lu satetraxetan chelator conjugate"}}, "key": {"U2932 cells": {"test_system": "U2932 cells", "assay": "Alamar Blue cytotoxicity study", "type": "cell-based, human", "details": "for IC50: Homo sapiens; for Combination Index (Chou-Talalay): 120 h", "protocol": "Cells were treated with either Humalutin, olaparib or a combination of both and seeded into 96 well-plates. At each time point after treatment, cells were incubated with Alamar Blue (Thermo Fisher, DALL1100) for 4 hours and fluorescence measurements were performed using a multiplate reader Fluoroskan ascent FL to assess cell proliferation and viability. All experiments were done in duplicates using 2 samples in each experiment. Data were normalized to the untreated controls.\n(§1) Cells were incubated with 0.25, 0.5, 1, 2.5 or 5 μg/ml of Humalutin in cell culture flasks and incubated at 37° C./5% CO2. After 18-20 hours cells were washed and resuspended in fresh medium. Cell bound activity after washing was measured using a calibrated gamma detector (Cobra II auto-gamma detector, Packard Instrument Company, Meriden, Conn., USA). Cell concentration and viability was also measured after washing using Guava ViaCount Cell Dispersal Reagent for Flow Cytometry (Merck GaA, Darmstadt, Germany) and measured in a Guava EasyCyte 12HT (Merck KGaA, Darmstadt, Germany) to determine how well the cells survived the incubation. Cells were seeded in 96 well plates.\nCells were seeded in 96 well plates pre-coated with from 1 to 100 μM olaparib in 0.2 ml medium and incubated at 37° C./5% CO2 for 72 hours before the cytotoxic effect was measured using alamar blue cell viability assay.\nCells were incubated with either 0, 0.5 μg/ml or 1 μg/ml Humalutin and the same procedure as described before for treatment with humalutin alone and olaparib alone was followed. Concentrations of olaparib used were between 1 and 100 μM.\nThe Chou-Talalay model was used for synergy calculations using the Compusyn software. R (goodness of fit) was calculated for the individual treatments and should be over 0.90 in in vitro culture experiments in order to use the calculated combination index (CI). The CI is an indication of synergy: 0-0.9 is considered synergy. Synergysm grading was used as described in WO2006004917A2. […]\nas §1, with “viability were” for “viability was”, “plates. Alamar blue viability measurements were performed 120 h after seeding.” for “plates.”\nCells were incubated with either 0 (control), 0.5 μg/ml or 1 μg/ml Humalutin for 18 to 20 hours. Cells were then washed and resuspended in fresh medium."}, "[1]": {"test_system": "CD3-/CD20+ cells from biopsies of patients with DLBCL or FL", "details": "4 patient biopsies, 18 h exposure, day 4", "protocol": "Frozen human biopsies from patients with DLBCL or FL were obtained from CHU de Montpellier Plateforme CRB/Hemodiag. Typically, cells were defrosted and grown at 0.5×10^6 cells/mL in 12-well plates at 37° C. in a humidified atmosphere of 95% air/5% CO2. Culture medium consisted of RPMI medium supplemented with 20% heat-inactivated fetal bovine serum, antibiotics ([…] penicillin and 100 μg/ml streptomycin), 50 ng/mL CD40L (His tagged; R&D system) and 5 μg/mL anti-his-tag antibody (R&D system, Abingdon, UK). After 5 h, they were treated with increasing amount of ^177Lu-lilotomab (0 to 6 MBq/mL) combined or not with MK-1775 or PD-166285 (1 μM) for 18 h. At the end of incubation, 50% of cells were analyzed by flow cytometry and the remaining cells were collected, centrifuged and washed twice with medium before being seeded in 12-well plates for 3 days more. After 3 days, cells were collected and analyzed by flow cytometry. Live/Dead fixable dead cell stain (Fisher scientific), anti-CD45, CD3, CD19, CD20 and CD10 mAbs (BD Pharmigen, Le pont de Claix, France) and anti-Kappa mAb (DAKO, Les Ulis, France) were used and analyzed by flow cytometry to determine quantity and proportion of tumor and non-tumor cells alive."}, "[2]": {"test_system": "CDK1 and its phosphorylations, p345-Chk1, Wee-1, Myt-1, CDK7 in Ramos cells", "assay": "Protein expression by Western blot", "type": "cell-based, human", "protocol": "(§2) Protein expression was assessed in 1×10^6 Ramos, DOHH2 or Rec-1 cells/mL grown in 12-well plates and exposed for 18 h to 0 and 6 MBq/mL of ^177Lu-lilotomab. Cells were harvested at 0, 2 h, 18 h, 1 d, 2 d and 3 d of RIT. At each time point, cells were rinsed and incubated in RIPA buffer (Santa Cruz) at 4° C. for 30 minutes. Cells were centrifuged and supernatant (containing proteins) were collected. Proteins were electrophoresed through SDS-PAGE using 12% poly-acrylamide gels and electrotransferred onto nitrocellulose membranes. Blots were incubated with anti-CDK1, anti-p-CDK1(Tyr15) (clone 10A11), anti-p-CDK1(Thr14), anti-p-CDK1(Thr161), anti-CDK7, anti-Wee-1 (clone D10D2), anti-Myt-1, anti-p-CHK1 (Ser345) and anti-human GAPDH (1/1000, Cell Signaling Technologies, Leiden, The Netherlands) primary antibodies. Blot were washed and incubated with horseradish peroxidase-conjugated anti-mouse Ig (115-036-072, Jackson ImmunoResearch) or with horseradish peroxidase-conjugated anti-rabbit Ig (7074, Cell Signaling). Signal detection of immunoblots was carried out using the enhanced chemiluminescence protocol according to the manufacturer's instructions (Clarity™ Western ECL blotting substrates, 1705061, BioRad). PXi analyser (Ozyme) was used to measure levels of protein expression."}, "[3]": {"test_system": "CDK1 and its phosphorylations, p345-Chk1, Wee-1, Myt-1, CDK7 in DOHH2 cells", "assay": "Protein expression by Western blot", "type": "cell-based, human", "protocol": "as §2"}}, "note": "Like-named read-outs stand apart in the source and are kept apart here."}
{"molecule": "CC1(C)CCC(CN2CCN(c3ccc(C(=O)NS(=O)(=O)c4ccc(NCC5CCOCC5)c([N+](=O)[O-])c4)c(Oc4cnc5[nH]ccc5c4)c3)CC2)=C(c2ccc(Cl)cc2)C1", "note": "[venetoclax]", "values": [{"measurement": "IC50", "setting": "U2932 cells; read-out: IC50 at 120 h, U2932, 120 h incubation after seeding", "value": 1140, "unit": "nM"}, {"measurement": "IC50", "setting": "U2932 cells; U2932, 72 h incubation after seeding, read-out: IC50", "value": 4150, "unit": "nM"}, {"measurement": "Combination Index (Chou-Talalay)", "setting": "U2932 cells; U2932, drug 10 μM + Humalutin 0.5 μg/ml", "value": 0.50}, {"measurement": "Combination Index (Chou-Talalay)", "setting": "U2932 cells; U2932, drug 10 μM + Humalutin 1 μg/ml", "value": 0.09}, {"measurement": "Combination Index (Chou-Talalay)", "setting": "U2932 cells; U2932, drug 40 μM + Humalutin 0.5 μg/ml", "value": 0.91}, {"measurement": "Combination Index (Chou-Talalay)", "setting": "U2932 cells; U2932, drug 40 μM + Humalutin 1 μg/ml", "value": 0.23}, {"measurement": "Combination Index (Chou-Talalay)", "setting": "U2932 cells; U2932, drug 80 μM + Humalutin 0.5 μg/ml", "value": 0.54}, {"measurement": "Combination Index (Chou-Talalay)", "setting": "U2932 cells; U2932, drug 80 μM + Humalutin 1 μg/ml", "value": 0.12}, {"measurement": "Combination Index (Chou-Talalay)", "setting": "U2932 cells; U2932, drug 100 μM + Humalutin 0.5 μg/ml", "value": 0.49}, {"measurement": "Combination Index (Chou-Talalay)", "setting": "U2932 cells; U2932, drug 100 μM + Humalutin 1 μg/ml", "value": 0.07}, {"measurement": "Combination Index (Chou-Talalay)", "setting": "U2932 cells; U2932, venetoclax 0.25 + Humalutin 0.5 μg/ml", "value": 0.02}, {"measurement": "Combination Index (Chou-Talalay)", "setting": "U2932 cells; U2932, venetoclax 0.25 + Humalutin 1 μg/ml", "value": 0.12}, {"measurement": "Combination Index (Chou-Talalay)", "setting": "U2932 cells; U2932, venetoclax 0.5 + Humalutin 0.5 μg/ml", "value": 0.01}, {"measurement": "Combination Index (Chou-Talalay)", "setting": "U2932 cells; U2932, venetoclax 0.5 + Humalutin 1 μg/ml", "value": 0.10}, {"measurement": "Combination Index (Chou-Talalay)", "setting": "U2932 cells; U2932, venetoclax 1 + Humalutin 0.5 μg/ml", "value": 0.03}, {"measurement": "Combination Index (Chou-Talalay)", "setting": "U2932 cells; U2932, venetoclax 1 + Humalutin 1 μg/ml", "value": 0.08}, {"measurement": "Combination Index (Chou-Talalay)", "setting": "U2932 cells; U2932, venetoclax 2.5 + Humalutin 0.5 μg/ml", "value": 0.03}, {"measurement": "Combination Index (Chou-Talalay)", "setting": "U2932 cells; U2932, venetoclax 2.5 + Humalutin 1 μg/ml", "value": 0.06}]}
{"molecule": "B1", "values": [{"measurement": "Proportion of tumor cells", "setting": "[1]", "value": "reduced the proportion of tumor cells"}, {"measurement": "Activating pThr161 CDK1 phosphorylation", "setting": "[2]; 6 MBq/mL for 18 h", "value": "transient low levels"}, {"measurement": "CDK1 level", "setting": "[2]; 6 MBq/mL for 18 h", "value": "quite stable"}, {"measurement": "Inhibitory pTyr15 and pThr14 CDK1 phosphorylations", "setting": "[2]; 6 MBq/mL for 18 h", "value": "high persistent levels"}, {"measurement": "Expression of Myt-1", "setting": "[2]; 18 h after treatment", "value": "decreased"}, {"measurement": "Level of phosphorylated CHK1 (Ser345)", "setting": "[2]; at 18-24 h", "value": "increased"}, {"measurement": "Expression of Wee-1", "setting": "[2]; between 18 and 48 h", "value": "comparable in control and treated"}, {"measurement": "Expression of Wee-1", "setting": "[3]; DOHH2", "value": "became undetectable at 24 h post-treatment"}, {"measurement": "Activating pThr161 CDK1 phosphorylation", "setting": "[3]; DOHH2, 6 MBq/mL for 18 h", "value": "persistent increase"}, {"measurement": "CDK1 level", "setting": "[3]; DOHH2, 6 MBq/mL for 18 h", "value": "decreased in DOHH2 at 48 h and 72 h"}, {"measurement": "Inhibitory pTyr15 and pThr14 CDK1 phosphorylations", "setting": "[3]; DOHH2, 6 MBq/mL for 18 h", "value": "dropped respectively at 24 h and 48 h"}, {"measurement": "Expression of Myt-1", "setting": "[3]; DOHH2, 18 h after treatment", "value": "decreased"}, {"measurement": "Level of phosphorylated CHK1 (Ser345)", "setting": "[3]; DOHH2, at 18-24 h", "value": "increased"}, {"measurement": "Levels of CDK7", "setting": "[3]; DOHH2, compared with Ramos cells", "value": "stable or increased"}]}
